What all share (assay): relative viability (nuclei count vs DMSO), 5 days (fraction); higher = more cells survive
Compound in the experiment “XMD8-85 + Lapatinib”: CN1CCN(CC1)C2=CC(=C(C=C2)NC3=NC=C4C(=N3)N(C5=CC=CC=C5C(=O)N4C)C)OC [XMD8-85] + CS(=O)(=O)CCNCc1ccc(-c2ccc3ncnc(Nc4ccc(OCc5cccc(F)c5)c(Cl)c4)c3c2)o1 [Lapatinib] (partner 2 µM)
The method, boiled down: (§1)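 Medians of duplicate plates are given as relative viability. That measure is the nuclei count in treated wells divided by the count in vehicle wells. Counts were taken on 4× images of lung cancer cell lines in 1536-well plates, 5 days after pin-tool dosing the day after seeding with one drug alone or a fixed anchor-drug dose plus five library-drug doses (not always all listed) in √10 steps.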

Compound in the experiment “4EGI-1 + Pictilisib”: O=C(O)C(Cc1ccccc1[N+](=O)[O-])=NNc1nc(-c2ccc(Cl)c(Cl)c2)cs1 (mixture of isomers) [4EGI-1] + CS(=O)(=O)N1CCN(Cc2cc3nc(-c4cccc5[nH]ncc45)nc(N4CCOCC4)c3s2)CC1 [Pictilisib] (partner 1 µM)
The method in brief:
as §1

Compound in the experiment “XMD8-85 + Bortezomib”: CN1CCN(CC1)C2=CC(=C(C=C2)NC3=NC=C4C(=N3)N(C5=CC=CC=C5C(=O)N4C)C)OC [XMD8-85] + CC(C)C[C@H](NC(=O)[C@H](Cc1ccccc1)NC(=O)c1cnccn1)B(O)O [Bortezomib] (partner 0.002 µM)
The method, boiled down:
as §1

Regarding NCI-H1792, the relative viability in the experiment with XMD8-85 + Lapatinib (first compound 0.08 µM) was found to be 0.893; in the experiment with XMD8-85 + Lapatinib (first compound 0.253 µM), 0.63; with XMD8-85 + Lapatinib (first compound 2.53 µM), 0.675; in the experiment with XMD8-85 + Lapatinib (first compound 8 µM), 0.879; in the experiment with 4EGI-1 + Pictilisib (first compound 0.5 µM) it was 0.321; with 4EGI-1 + Pictilisib (first compound 1.581 µM) it was 0.209. The relative viability in the experiment with 4EGI-1 + Pictilisib (first compound 5 µM) turned out to be 0.257; with 4EGI-1 + Pictilisib (first compound 15.81 µM), 0.214; in the experiment with 4EGI-1 + Pictilisib (first compound 50 µM), 0.145; with XMD8-85 + Bortezomib (first compound 0.08 µM) it was 0.985; with XMD8-85 + Bortezomib (first compound 0.253 µM), 0.776; with XMD8-85 + Bortezomib (first compound 2.53 µM), 0.929. Besides, the relative viability with XMD8-85 + Bortezomib (first compound 8 µM) worked out at 0.838.
